# PubChem BioAssay (NCI)
#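 Following 48 hours of exposure in 96-well plates, responses at five concentrations were used to interpolate endpoints linearly. TGI marks complete inhibition of growth.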
# Test system: SF-295 CNS
# Assay: DTP human tumour cell line panel, 48 h
row,Structure (SMILES),TGI [µM]
1,Cc1cc([C@H](C#N)c2nc3ccccc3[nH]2)nc(Cl)n1,> 100
2,CC(C)(C)[Si](C)(C)O[C@@H](C(=O)OC1C=CCCC1)[C@@H](NC(=O)c1ccccc1)c1ccccc1 (some centres not stated),65.1
3,Cc1oc2c(c1C)S(=O)(=O)C(C#N)=C(c1ccccc1)N2,> 100
4,O=C1c2ccccc2C(O)(C(=O)O)C1(O)CC=C(Cl)Cl (configuration not stated),> 125
5,CC(=O)O[C@@H]1CC[C@@]2(C)C(CC[C@H]3[C@@H]4CC[C@H]([C@H](C)CCc5nc6ccc(C)cc6[nH]5)[C@@]4(C)CC[C@@H]32)C1 (some centres not stated),> 100
6,COc1cccc(OC/C(N=Cc2cccnc2)=N/NC(=O)c2ccncc2)c1,> 100
7,C/C1=C/C(C)CC(C)OC(=O)C(C)NC(=O)C(Cc2ccc(O)c(I)c2)N(C)C(=O)CNC(=O)C(C)C1 (configuration not stated),1.73
8,Cc1ccc(-n2cnc3c(N)nc(N)nc32)cc1,> 100
9,CC12CCC3[C@@H](CC3(C)C)C(O)(CCC1=O)C2 (some centres not stated),> 100
10,CCCCCCCCCCCCCCCCCCNc1ccn(C2OC(COP(=O)(O)OC3CC(n4cc(F)c(=O)[nH]c4=O)OC3COP(=O)(O)OCC3OC(n4ccc(N)nc4=O)C(O)C3O)C(O)C2O)c(=O)n1 (configuration not stated),> 51.9

# Test system: HCC-2998 colon
# Assay: DTP human tumour cell line panel, 48 h
row,Structure (SMILES),TGI [µM]
1,Nc1nc(N)c2cc(Sc3ccc4nc(N)nc(N)c4c3)ccc2n1,> 100
2,N#CC(C#N)N=Cc1ccncc1,> 100
3,COc1ccc2c(c1)/C(=C\c1c(C)nc3n1CCS3)C(=O)N2,> 100
4,COC(=O)C1=C(O)C(C(=O)OC)[C@]2(O)[C@H](C(=O)OC)[C@H]1C[C@@H](c1ccc(F)cc1)[C@H]2C(=O)OC (some centres not stated),28.7
5,CCN(CC)c1cc2c3c(c1)CCCN3CCC2,> 10
6,CN(C)C=C1C(=O)c2c(Br)sc(Br)c2C1=O,25.9
7,CC(=O)O[C@H]1CC[C@H]2[C@@H]3CCC4C(C)=NNC(=O)C4[C@H]3CC[C@]12C (some centres not stated),> 100
8,COc1cc2c[n+](C)c3c4cc5c(cc4ccc3c2cc1OC)OCO5,7.52
9,O=c1[nH]c(C23CC4CC(CC(C4)C2)C3)cc2c1c(=O)oc1ccccc12,19.6
10,CCN(CC)C(=C(C(Cl)=C(Cl)Cl)[N+](=O)[O-])N(CC)CC,> 100
11,O=C1C(=O)c2c(oc(=O)c3ccccc23)-c2ccccc21,> 25
12,CCOC(=O)C(C(=O)OCC)=C1NC2(c3ccccc3Nc3ccc(C)cc32)C(C#N)S1 (configuration not stated),11.3
13,CN1CCC2(CC1)SC[C@H]1C(=O)N(c3ccc(Cl)cc3)C(=O)N12,> 100
14,CC(C)=CCC[C@@H](C)C1=C(O)C(O)C(C)=C2N=C(c3ccccc3)C(=O)OC21 (some centres not stated),21.2
15,Cc1cc([C@H](C#N)c2nc3ccccc3[nH]2)nc(Cl)n1,42.8
16,CC(C)(C)[Si](C)(C)O[C@@H](C(=O)OC1C=CCCC1)[C@@H](NC(=O)c1ccccc1)c1ccccc1 (some centres not stated),44.4
17,Cc1oc2c(c1C)S(=O)(=O)C(C#N)=C(c1ccccc1)N2,> 100
18,O=C1c2ccccc2C(O)(C(=O)O)C1(O)CC=C(Cl)Cl (configuration not stated),> 125
19,CC(=O)O[C@@H]1CC[C@@]2(C)C(CC[C@H]3[C@@H]4CC[C@H]([C@H](C)CCc5nc6ccc(C)cc6[nH]5)[C@@]4(C)CC[C@@H]32)C1 (some centres not stated),> 100
20,COc1cccc(OC/C(N=Cc2cccnc2)=N/NC(=O)c2ccncc2)c1,> 100
21,C/C1=C/C(C)CC(C)OC(=O)C(C)NC(=O)C(Cc2ccc(O)c(I)c2)N(C)C(=O)CNC(=O)C(C)C1 (configuration not stated),13.2
22,Cc1ccc(-n2cnc3c(N)nc(N)nc32)cc1,> 100
23,CC12CCC3[C@@H](CC3(C)C)C(O)(CCC1=O)C2 (some centres not stated),> 100
24,CO[C@H]1c2cccc3cccc(c23)[C@@H]1n1[nH]c(=O)n(C(C)(C)C)c1=O,> 100
25,CCCCCCCCCCCCCCCCCCNc1ccn(C2OC(COP(=O)(O)OC3CC(n4cc(F)c(=O)[nH]c4=O)OC3COP(=O)(O)OCC3OC(n4ccc(N)nc4=O)C(O)C3O)C(O)C2O)c(=O)n1 (configuration not stated),27.3

# Test system: RPMI-8226 leukemia
# Assay: DTP human tumour cell line panel, 48 h
row,Structure (SMILES),TGI [µM]
1,Nc1nc(N)c2cc(Sc3ccc4nc(N)nc(N)c4c3)ccc2n1,> 100
2,N#CC(C#N)N=Cc1ccncc1,> 100
3,COc1ccc2c(c1)/C(=C\c1c(C)nc3n1CCS3)C(=O)N2,> 100
4,COC(=O)C1=C(O)C(C(=O)OC)[C@]2(O)[C@H](C(=O)OC)[C@H]1C[C@@H](c1ccc(F)cc1)[C@H]2C(=O)OC (some centres not stated),69.7
5,CCN(CC)c1cc2c3c(c1)CCCN3CCC2,> 10
6,CN(C)C=C1C(=O)c2c(Br)sc(Br)c2C1=O,> 100
7,CC(=O)O[C@H]1CC[C@H]2[C@@H]3CCC4C(C)=NNC(=O)C4[C@H]3CC[C@]12C (some centres not stated),> 100
8,COc1cc2c[n+](C)c3c4cc5c(cc4ccc3c2cc1OC)OCO5,23.5
9,O=c1[nH]c(C23CC4CC(CC(C4)C2)C3)cc2c1c(=O)oc1ccccc12,15.1
10,CCN(CC)C(=C(C(Cl)=C(Cl)Cl)[N+](=O)[O-])N(CC)CC,> 100
11,O=C1C(=O)c2c(oc(=O)c3ccccc23)-c2ccccc21,> 25
12,CCOC(=O)C(C(=O)OCC)=C1NC2(c3ccccc3Nc3ccc(C)cc32)C(C#N)S1 (configuration not stated),4.63
13,CN1CCC2(CC1)SC[C@H]1C(=O)N(c3ccc(Cl)cc3)C(=O)N12,> 100
14,CC(C)=CCC[C@@H](C)C1=C(O)C(O)C(C)=C2N=C(c3ccccc3)C(=O)OC21 (some centres not stated),> 7.03
15,Cc1cc([C@H](C#N)c2nc3ccccc3[nH]2)nc(Cl)n1,> 100
16,CC(C)(C)[Si](C)(C)O[C@@H](C(=O)OC1C=CCCC1)[C@@H](NC(=O)c1ccccc1)c1ccccc1 (some centres not stated),9.89
17,Cc1oc2c(c1C)S(=O)(=O)C(C#N)=C(c1ccccc1)N2,> 100
18,O=C1c2ccccc2C(O)(C(=O)O)C1(O)CC=C(Cl)Cl (configuration not stated),> 125
19,CC(=O)O[C@@H]1CC[C@@]2(C)C(CC[C@H]3[C@@H]4CC[C@H]([C@H](C)CCc5nc6ccc(C)cc6[nH]5)[C@@]4(C)CC[C@@H]32)C1 (some centres not stated),84.3
20,COc1cccc(OC/C(N=Cc2cccnc2)=N/NC(=O)c2ccncc2)c1,> 100
21,C/C1=C/C(C)CC(C)OC(=O)C(C)NC(=O)C(Cc2ccc(O)c(I)c2)N(C)C(=O)CNC(=O)C(C)C1 (configuration not stated),0.757
22,Cc1ccc(-n2cnc3c(N)nc(N)nc32)cc1,> 100
